{"source": "paper PMC6292506", "about": "(Nature structural & molecular biology, 2018)", "molecules": {"B1": {"name": "GST-Cdc14 (enzyme, S. cerevisiae, UniProt Q00684 1-551, looked up)", "chain": "MRRSVYLDNTIEFLRGRVYLGAYDYTPEDTDELVFFTVEDAIFYNSFHLDFGPMNIGHLYRFAVIFHEILNDPENANKAVVFYSSASTRQRANAACMLCCYMILVQAWTPHQVLQPLAQVDPPFMPFRDAGYSNADFEITIQDVVYGVWRAKEKGLIDLHSFNLESYEKYEHVEFGDFNVLTPDFIAFASPQEDHPKGYLATKSSHLNQPFKSVLNFFANNNVQLVVRLNSHLYNKKHFEDIGIQHLDLIFEDGTCPDLSIVKNFVGAAETIIKRGGKIAVHCKAGLGRTGCLIGAHLIYTYGFTANECIGFLRFIRPGMVVGPQQHWLYLHQNDFREWKYTTRISLKPSEAIGGLYPLISLEEYRLQKKKLKDDKRVAQNNIEGELRDLTMTPPSNGHGALSARNSSQPSTANNGSNSFKSSAVPQTSPGQPRKGQNGSNTIEDINNNRNPTSHANRKVVIESNNSDDESMQDTNGTSNHYPKVSRKKNDISSASSSRMEDNEPSATNINNAADDTILRQLLPKNRRVTSGRRTTSAAGGIRKISGSIKK"}}, "key": {"[1]": {"target": "GFP-Cdc14 (Saccharomyces cerevisiae, UniProt Q00684)", "experiment": "biochemical", "assay_type": "binding"}, "[2]": {"target": "Cdc14 (Saccharomyces cerevisiae, UniProt Q00684)", "assay_type": "biochemical", "conditions": "for Dephosphorylation of pTP phosphopeptide by Cdc14: 1 µM Cdc14 (Supplementary Fig. 9d)"}, "[3]": {"tested_on": "Cdc14 with Net1^1-600", "assay_type": "biochemical, Saccharomyces cerevisiae", "conditions": "200 nM Net1^1-600; two independent experiments (Fig. 4c)"}, "[4]": {"target": "T1, His6-Net1^1-600 (S. cerevisiae, UniProt P47035 1-600)", "T1 sequence (looked up)": "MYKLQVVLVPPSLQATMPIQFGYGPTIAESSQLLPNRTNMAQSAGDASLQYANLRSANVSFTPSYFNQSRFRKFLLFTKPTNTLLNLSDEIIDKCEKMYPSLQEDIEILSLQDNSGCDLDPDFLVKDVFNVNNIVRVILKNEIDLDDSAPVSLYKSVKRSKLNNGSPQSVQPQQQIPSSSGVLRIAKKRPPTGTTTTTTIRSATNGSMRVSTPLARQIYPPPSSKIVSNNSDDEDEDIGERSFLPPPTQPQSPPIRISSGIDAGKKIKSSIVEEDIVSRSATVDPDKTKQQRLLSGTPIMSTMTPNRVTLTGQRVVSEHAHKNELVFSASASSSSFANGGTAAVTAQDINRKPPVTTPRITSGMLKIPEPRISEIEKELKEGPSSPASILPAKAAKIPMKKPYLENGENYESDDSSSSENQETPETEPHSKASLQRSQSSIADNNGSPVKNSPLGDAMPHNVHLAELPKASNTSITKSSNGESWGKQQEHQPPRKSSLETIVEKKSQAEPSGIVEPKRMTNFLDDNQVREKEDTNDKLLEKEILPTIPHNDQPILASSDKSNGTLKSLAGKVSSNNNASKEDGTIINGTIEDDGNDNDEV", "experiment": "pull-down"}, "[5]": {"target": "T2, GFP-Cdc14 (S. cerevisiae, UniProt Q00684 1-551)", "T2 sequence (looked up)": "B1 chain", "experiment": "MST"}}, "note": "Where a SMILES comes first, the peptide text is derived from it.", "data": [{"molecule": "CC(C)C[C@H](NC(=O)[C@H](CC(C)C)NC(=O)[C@@H]1CCCN1C(=O)[C@H](C)NC(=O)[C@H](CC(N)=O)NC(=O)[C@H](CCCCN)NC(=O)[C@H](Cc1ccccc1)NC(=O)[C@H](CO)NC(=O)[C@H](CCCCN)NC(=O)[C@@H](NC(=O)[C@@H](NC(=O)[C@H](CO)NC(=O)[C@@H]1CCCN1)[C@@H](C)O)[C@@H](C)O)C(=O)N[C@@H](C)C(=O)N1CCC[C@H]1C(=O)N1CCC[C@H]1C(=O)O", "note": "[Sic1 peptide] (H-PSTTKSFKNAPLLAPP-OH)", "values": [{"measurement": "Kd", "setting": "[1]", "result": 32.2, "unit": "µM"}]}, {"molecule": "FTDVAAGNYPATPPPH-TSPLGpTPLAAFNGLTSPQRSPFPKSSVK [AxG…pTP control peptide]", "values": [{"measurement": "Dephosphorylation of pTP phosphopeptide by Cdc14", "setting": "[2]", "result": "almost undetectable"}]}, {"molecule": "FTDVPALNYPATPPPH-TSPLGpSPLAAFNGLTSPQRSPFPKSSVK [PxL…pSPxAA peptide]", "values": [{"measurement": "Behaviour at higher substrate concentrations", "setting": "[2]; pSPxAA phosphopeptide, 100 nM Cdc14, above 50 μM (Fig. 6a)", "result": "apparent substrate inhibition"}]}, {"molecule": "FTDVPALNYPATPPPHTSPLGpTPLAAFNGLTSPQRSPFP-KSSVK [PxL…pTP peptide]", "values": [{"measurement": "Dephosphorylation of pTP phosphopeptide by Cdc14", "setting": "[2]", "result": "substantially enhanced"}]}, {"molecule": "YVPAPAPTTPLNFDHP [scrambled peptide]", "values": [{"measurement": "Effect of peptide on inhibition of Cdc14 p-NPP hydrolysis by Net1", "setting": "[3]", "result": "observed to a much lesser extent"}]}, {"molecule": "B1", "values": [{"measurement": "binding result", "setting": "[4]", "result": "binds"}]}, {"molecule": "FTDVPALNYPATPPPH", "note": "[Cbk1-derived PxL motif peptide (16-mer)]", "values": [{"measurement": "Kd", "setting": "[5]", "result": 6.1, "unit": "µM"}]}, {"molecule": "Ac-KGKLILSSVPPLPYDE-NH2", "note": "[Kar9-derived PxL motif peptide]", "values": [{"measurement": "Kd", "setting": "[5]", "result": 6, "unit": "µM"}]}]}
